In patent US10167412B2, “Phenol polymer with 5,5′-biaryl bonds, method for preparing same, and uses thereof” (INSTITUT NATIONAL DE LA RECHERCHE AGRONOMIQUE, priority 2013, dated 2019):

Biological target: T1, estrogen receptors (Homo sapiens, UniProt P03372)
T1 construct: expressed in transfected cells; host or cells: HELN-ERα cell line (HeLa-derived, per own knowledge of Escande et al. 2006)
T1 sequence (P03372 1-595): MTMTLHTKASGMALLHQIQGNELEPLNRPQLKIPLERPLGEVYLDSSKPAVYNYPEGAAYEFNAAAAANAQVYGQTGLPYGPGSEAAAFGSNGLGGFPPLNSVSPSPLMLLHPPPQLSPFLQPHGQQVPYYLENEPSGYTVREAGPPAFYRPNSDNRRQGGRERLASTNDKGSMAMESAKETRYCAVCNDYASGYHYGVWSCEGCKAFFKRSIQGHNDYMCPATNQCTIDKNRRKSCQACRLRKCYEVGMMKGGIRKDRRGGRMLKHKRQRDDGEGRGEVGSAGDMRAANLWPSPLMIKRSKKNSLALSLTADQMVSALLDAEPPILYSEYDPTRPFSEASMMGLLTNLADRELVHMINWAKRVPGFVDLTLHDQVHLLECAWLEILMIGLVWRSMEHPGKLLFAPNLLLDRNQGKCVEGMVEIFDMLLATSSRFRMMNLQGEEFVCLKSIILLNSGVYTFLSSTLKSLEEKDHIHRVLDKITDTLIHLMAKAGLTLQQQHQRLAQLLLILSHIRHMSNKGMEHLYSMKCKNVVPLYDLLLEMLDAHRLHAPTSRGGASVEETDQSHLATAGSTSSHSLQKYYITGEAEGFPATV
Assay: Test for toxicity with respect to estrogen receptors on the HELN-ERα cell line
Type: cell-based
Settings: for interaction with estrogen receptors (% of antagonist activity with respect to estradiol (E2) at 10 nM): FIG. 12, result in words
Procedure: A test for toxicity with respect to estrogen receptors was carried out for the IDF, PDF, GDF and BDF macrobisphenols, according to the method set out in the publication by Molina-Molina et al., 2008 (Toxicol. Appl. Pharmacol., doi: 10.1016/j.taap.2008.07.017), on the HELN-ERα cell line, described in the publication by Escande et al., 2006 (Biochemical Pharmacology, 71, 1459-1469).
The results obtained, expressed as % of antagonist activity with respect to the activity of estradiol (E2) at 10 nM, as a function of the monomer concentration, are shown in FIG. 12.

| Structure (SMILES) | interaction with estrogen receptors (% of antagonist activity with respect to estradiol (E2) at 10 nM) | percentage activity with respect to the activity of estradiol (E2) at 10 nM (at 10^−5 M) [%] | percentage activity with respect to the activity of estradiol (E2) at 10 nM (at 10^−6 M) [%] |
| --- | --- | --- | --- |
| COc1cc(CCC(=O)OCCCCOC(=O)CCc2ccc(O)c(OC)c2)ccc1O [BDF, butane-1,4-di(dihydroferulate)] | interact only very little |  |  |
| COc1cc(CCC(=O)O[C@H]2CO[C@H]3[C@@H]2OC[C@H]3OC(=O)CCc2ccc(O)c(OC)c2)ccc1O [IDF, isosorbide-2,5-(dihydroferulate)] | interact only very little |  |  |
| COc1cc(CCC(=O)OCC(O)COC(=O)CCc2ccc(O)c(OC)c2)ccc1O [GDF, glycerol-3-di(dihydroferulate)] | interact only very little |  |  |
| CC(C)(c1ccc(O)cc1)c1ccc(O)cc1 [bisphenol A, reference compound] |  | 60 | 45 |
| COc1cc(CCC(=O)OCCCOC(=O)CCc2ccc(O)c(OC)c2)ccc1O [PDF, propane-1,3-di(dihydroferulate)] | interact only very little |  |  |
